Results taken from patent US5420128A, “Pyrimidine derivatives, method of manufacturing the same, and androgen inhibitor” (Otsuka Pharmaceutical Co., Ltd., priority 1990, dated 1995).

Biological target: T1, rat prostate androgen receptor (Rattus norvegicus, UniProt P15207)
T1 construct: the supernatant was obtained as cytoplasm fraction; from tissue; host or cells: cytosol (105000×g supernatant) of rat ventral prostate, 24 hours after castration
T1 sequence (P15207 1-902): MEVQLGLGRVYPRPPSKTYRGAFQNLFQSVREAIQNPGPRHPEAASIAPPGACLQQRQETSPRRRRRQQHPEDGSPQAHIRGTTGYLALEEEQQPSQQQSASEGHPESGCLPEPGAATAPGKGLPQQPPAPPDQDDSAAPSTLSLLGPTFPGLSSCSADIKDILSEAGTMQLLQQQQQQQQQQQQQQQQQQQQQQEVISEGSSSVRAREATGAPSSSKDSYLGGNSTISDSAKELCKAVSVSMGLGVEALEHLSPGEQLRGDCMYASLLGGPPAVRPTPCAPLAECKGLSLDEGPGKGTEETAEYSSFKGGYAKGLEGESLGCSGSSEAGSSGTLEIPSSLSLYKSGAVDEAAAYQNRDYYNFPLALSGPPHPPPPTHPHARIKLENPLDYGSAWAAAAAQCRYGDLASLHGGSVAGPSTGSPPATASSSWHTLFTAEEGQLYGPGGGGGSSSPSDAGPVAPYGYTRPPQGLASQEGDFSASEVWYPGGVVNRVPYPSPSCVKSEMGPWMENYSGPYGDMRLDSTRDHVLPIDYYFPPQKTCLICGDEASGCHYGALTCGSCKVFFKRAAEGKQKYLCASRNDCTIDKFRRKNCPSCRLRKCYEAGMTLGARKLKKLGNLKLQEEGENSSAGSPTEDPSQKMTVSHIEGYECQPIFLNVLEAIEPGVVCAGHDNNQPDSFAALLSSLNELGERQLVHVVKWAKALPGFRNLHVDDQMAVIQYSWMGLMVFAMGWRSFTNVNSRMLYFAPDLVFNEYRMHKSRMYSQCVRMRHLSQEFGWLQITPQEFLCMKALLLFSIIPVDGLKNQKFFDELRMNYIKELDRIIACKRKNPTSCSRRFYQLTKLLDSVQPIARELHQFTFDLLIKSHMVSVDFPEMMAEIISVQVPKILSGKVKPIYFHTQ
Assay: inhibitory activity on binding of ^3 H-mibolerone on rat prostate androgen receptor
Conditions: ^3 H-mibolerone 1 nM, triamcinolone acetonide 5 μM, rat ventral prostate cytosol, 20 hours at 0° C.; read-out: Inhibitory activity on mibolerone specific binding [IC50 (M)]
Protocol: B. Measurement of inhibitory activity on binding of ^3 H-mibolerone on rat prostate androgen receptor
(1) Preparation of cytosol from rat prostate
The rat was sacrificed 24 hours after castration, and the ventral lobe of prostate was removed, and was gently homogenized, in ice-cooling water bath, at first by using Polytron and then using Potter type homogenizer, in three-fold amount of buffer solution A (1.5 mM EDTA, 2 mM dithiothreitol, 10 mM molybdate sodium, 10 % by volume of glycerol, 10 mM NaF, 25 mM phosphate sodium, pH 7.2). The obtained homogenate was filtrated through double gauze, and centrifuged at 105000×g for 60 minutes at 4° C., and the supernatant was obtained as cytoplasm fraction.
(2) Measurement of specific binding of ^3 H-mibolerone on prostate cytoplasm androgen receptor
To the cytoplasm fraction obtained in (1), ^3 H-mibolerone (87.0 Ci/mmol) was added, so that a final concentration is adjusted to 1 nM, and at the same time, in order to inhibit binding of ^3 H-mibolerone to progestin receptor, triamsinolone acetonide was added to a final concentration of 5 μM, and the final volume was adjusted to 0.4 ml with buffer solution A, and the reaction mixture was incubated for 20 hours at 0° C. After incubation, 0.5 ml of 60% hydroxylapatite slurry (washed and equilibrate with a buffer solution B: 10 mM NaH2 P04, 20 mM tris-hydrochloric acid, pH 7.2) was added, and incubated for 10 minutes at 0° C., the solution was transferred onto a glass fiber filter, and washed five times with 5 ml portions of buffer solution B containing 0.1% (weight/volume) of Triton X-100, to remove free ^3 H-mibolerone. This glass fiber was transferred into vial, and 10 ml of aquasol-2 was added, and the radioactivity was measured, and the total binding amount of ^3 H-mibolerone on prostate cytoplasm androgen receptor was determined.
The nonspecific binding amount was determined similarly by adding an unlabeled 5α-DHT in the reaction solution to a final concentration of 1 μM. The difference between the total binding amount and nonspecific binding amount was determined as the specific binding amount on the androgen receptor.
(3) Inhibitory activity of sample compounds on ^3 H-mibolerone specific binding
The compounds obtained in the experiments were added simultaneously with ^3 H-mibolerone at different concentrations to incubate same as in (2), and the specific binding amount of 3H-mibolerone on androgen receptor was determined. Comparing this value with the value obtained in (2), the IC50 value of inhibitory activity of the compounds on ^3 H-mibolerone specific binding was determined.

Compound | IC50 [M]
Oc1ccccc1Cc1cnc2c(-c3ccc(Sc4ccccc4)cc3)cnn2c1O [Example 61, 7-Hydroxy-6-(2-hydroxyphenylmethyl)-3-(4-phenylthiophenyl)pyrazolo[1,5-a]pyrimidine] | 1.6e-07
Oc1cc(-c2ccccc2)nc2c(-c3ccc(Sc4ccccc4)cc3)cnn12 [Example 10, 7-Hydroxy-5-phenyl-3-(4-phenylthiophenyl)pyrazolo[1,5-a]pyrimidine] | > 5e-06
O=C(O)c1cnc2c(-c3ccc(Sc4ccccc4)cc3)cnn2c1O [Example 38, 7-Hydroxy-6-carboxy-3-(4-phenylthiophenyl)pyrazolo[1,5-a]pyrimidine] | 5.8e-08
Cc1cnc2c(-c3ccc(Sc4ccccc4)cc3)cnn2c1O [Example 24, 7-Hydroxy-6-methyl-3-(4-phenylthiophenyl)pyrazolo[1,5-a]pyrimidine] | 6.4e-08
O=C(O)CCc1cnc2c(-c3ccc(Sc4ccccc4)cc3)cnn2c1O [Example 39, 7-Hydroxy-6-carboxyethyl-3-(4-phenylthiophenyl)pyrazolo[1,5-a]pyrimidine] | 1.3e-07
Oc1cccc(Cc2cnc3c(-c4ccc(Sc5ccccc5)cc4)cnn3c2O)c1 [Example 62, 7-Hydroxy-6-(3-hydroxyphenylmethyl)-3-(4-phenylthiophenyl)pyrazolo[1,5-a]pyrimidine] | 1.2e-07
Oc1c2c(nc3c(-c4ccc(Sc5ccccc5)cc4)cnn13)CCCC2 [Example 12, 9-Hydroxy-3-(4-phenylthiophenyl)-5,6,7,8-tetrahydropyrazolo[5,1-b]quinazoline] | > 5e-06
CC(=O)OCCc1cnc2c(-c3ccc(Sc4ccccc4)cc3)cnn2c1O [Example 59, 6-(2-Acetoxyethyl)-7-hydroxy-3-(4-phenylthiophenyl)pyrazolo[1,5-a]pyrimidine] | 1.65e-07
Oc1c(-c2ccccc2F)cnc2c(-c3ccc(Sc4ccccc4)cc3)cnn12 [Example 57, 7-Hydroxy-6-(2-fluorophenyl)-3-(4-phenylthiophenyl)pyrazolo[1,5-a]pyrimidine] | 1.45e-07
COCc1nn2c(O)ccnc2c1-c1ccc(Sc2ccccc2)cc1 [Example 19, 7-Hydroxy-2-methoxymethyl-3-(4-phenylthiophenyl)pyrazolo[1,5-a]pyrimidine] | > 5e-06
CCOC(=O)c1cnc2c(-c3ccc(Sc4ccccc4)c(OC)c3)cnn2c1O [Example 14, 7-Hydroxy-6-ethoxycarbonyl-3-(3-methoxy-4-phenylthiophenyl)pyrazolo[1,5-a]pyrimidine] | 2e-07
COc1cc(-c2cnn3c(O)c(C(N)=O)cnc23)ccc1Sc1ccccc1 [Example 44, 6-Carbamoyl-7-hydroxy-3-(3-methoxy-4-phenylthiophenyl)pyrazolo[1,5-a]pyrimidine] | 7.7e-08
CC(C)c1cnc2c(-c3ccc(Sc4ccccc4)cc3)cnn2c1O [Example 26, 7-Hydroxy-6-isopropyl-3-(4-phenylthiophenyl)pyrazolo[1,5-a]pyrimidine] | 1.8e-07
Oc1c(-c2cccc(F)c2)cnc2c(-c3ccc(Sc4ccccc4)cc3)cnn12 [Example 56, 7-Hydroxy-6-(3-fluorophepyl)-3-(4-phenylthiophenyl)pyrazolo[1,5-a]pyrimidine] | 1.2e-07
Oc1c(-c2ccccc2)cnc2c(-c3ccc(Sc4ccccc4)cc3)cnn12 [Example 23, 7-Hydroxy-6-phenyl-3-(4-phenylthiophenyl)pyrazolo[1,5-a]pyrimidine] | 5.8e-08
Oc1ccc(Cc2cnc3c(-c4ccc(Sc5ccccc5)cc4)cnn3c2O)cc1 [Example 63, 7-Hydroxy-6-(4-hydroxyphenylmethyl)-3-(4-phenylthiophenyl)pyrazolo[1,5-a]pyrimidine] | > 5e-06
O=C(c1ccccc1)c1cnc2c(-c3ccc(Sc4ccccc4)cc3)cnn2c1O [Example 68, 7-Hydroxy-6-benzoyl-3-(4-phenylthiophenyl)pyrazolo[1,5-a]pyrimidine] | 1.3e-06

Compound | IC50 [M]
Oc1ccc(-c2cnc3c(-c4ccc(Sc5ccccc5)cc4)cnn3c2O)cc1 [Example 66, 7-Hydroxy-6-(4-hydroxyphenyl)-3-(4-phenylthiophenyl)pyrazolo[1,5-a]pyrimidine] | 1.6e-07
Cc1ccc(-c2cnc3c(-c4ccc(Sc5ccccc5)cc4)cnn3c2O)cc1 [Example 51, 7-Hydroxy-6-(4-methylphenyl)-3-(4-phenylthiophenyl)pyrazolo[1,5-a]pyrimidin] | 3.4e-07
Oc1c(Cl)cnc2c(-c3ccc(Sc4ccccc4)cc3)cnn12 [Example 36, 7-Hydroxy-6-chloro-3-(4-phenylthiophenyl)pyrazolo[1,5-a]pyrimidine] | 1.3e-07
CCOC(=O)Cc1cnc2c(-c3ccc(Sc4ccccc4)cc3)cnn2c1O [Example 33, 7-Hydroxy-6-ethoxycarbonylmethyl-3-(4-phenylthiophenyl)pyrazolo[1,5-a]pyrimidine] | 2.8e-07
COc1cnc2c(-c3ccc(Sc4ccccc4)cc3)cnn2c1O [Example 21, 7-Hydroxy-6-methoxy-3-(4-phenylthiophenyl)pyrazolo[1,5-a]pyrimidine] | 1.65e-07
O=C(Nc1cc(Cl)c(Cl)c(Cl)c1)c1cnc2c(-c3ccc(Sc4ccccc4)cc3)cnn2c1O [Example 45, 7-Hydroxy-3-(4-phenylthiophenyl)-6-(N-3,4,5-trichlorophenyl)carbamoylpyrazolo[1,5-a]pyrimidine] | 4e-07
c1ccc(Sc2ccc(-c3cnn4cccnc34)cc2)cc1 [Example 49, 3-(4-phenylthiophenyl)pyrazolo[1,5-a]pyrimidine] | > 5e-06
COc1ccc(-c2cnc3c(-c4ccc(Sc5ccccc5)cc4)cnn3c2O)cc1Br [Example 73, 6-(3-bromo-4-methoxyphenyl)-7-hydroxy-3-(4-phenylthiophenyl)pyrazolo[1,5-a]pyrimidine] | > 5e-06
COc1cc(-c2cnn3c(O)ccnc23)ccc1Sc1ccccc1 [Example 15, 7-Hydroxy-3-(3-methoxy-4-penylthiophenyl)pyrazolo[1,5-a]pyrimidine] | 1.5e-07
Oc1c(C(O)C(F)(F)F)cnc2c(-c3ccc(Sc4ccccc4)cc3)cnn12 (stereo not drawn) [Example 72, 7-Hydroxy-6-(1-hydroxy-2,2,2-trifluoroethyl)-3-(4-phenylthiophenyl)pyrazolo[1,5-a]pyrimidine] | 1.6e-07
Cc1nn2c(O)ccnc2c1-c1ccc(Sc2ccccc2)cc1 [Example 18, 7-Hydroxy-2-methyl-3-(4-phenylthiophenyl)pyrazolo[1,5-a]pyrimidine] | 1.2e-06
Oc1cccc(-c2cnc3c(-c4ccc(Sc5ccccc5)cc4)cnn3c2O)c1 [Example 65, 7-Hydroxy-6-(3-hydroxyphenyl)-3-(4-phenylthiophenyl)pyrazolo[1,5-a]pyrimidine] | 1.4e-07
Oc1ccccc1-c1cnc2c(-c3ccc(Sc4ccccc4)cc3)cnn2c1O [Example 64, 7-Hydroxy-6-(2-hydroxyphenyl)-3-(4-phenylthiophenyl)pyrazolo[1,5-a]pyrimidine] | 7.4e-07
CC(C)c1cc(O)n2ncc(-c3ccc(Sc4ccccc4)cc3)c2n1 [Example 7, 7-Hydroxy-5-isopropyl-3-(4-phenylthiophenyl)pyrazolo[1,5-a]pyrimidine] | 1.3e-05
NC(=O)c1cnc2c(-c3ccc(Sc4ccccc4)cc3)cnn2c1O [Example 43] | 7.6e-08
COc1ccc(-c2cnc3c(-c4ccc(Sc5ccccc5)cc4)cnn3c2O)cc1 [Example 52, 7-Hydroxy-6-(4-methoxyphenyl)-3-(4-phenylthiophenyl)pyrazolo[1,5-a]pyrimidine] | 2.3e-07
